Results reported in patent US7592143B2, “Methods of treating diseases responsive to induction of apoptosis and screening assays” (Cytovia, Inc., priority 2003, dated 2009).
pEC50: −log10 of the molar value.

Experiments:
[1] = target: Transferrin Receptors (Homo sapiens, UniProt P02786); test: Transferrin receptor binding assay of small molecules: inhibition of biotin-GA binding; details: 0.75 h; Compounds tested at 20 μM; biotin-GA kept at 1 μM
Protocol: The assay was run similar as described in Example 38. Wells of a 96-well assay plate were coated with 500 ng of HTR in 100 μl of PBS per well overnight at 4° C. These were washed twice with 200 μl of PBS and incubated with 200 μl of 1% BSA solution in PBS and washed twice with 200 μl of PBS. 100 μl of 1 μM biotin-GA solution in binding buffer (PBS/0.1% BSA/0.1% Tween-20) was added per well and incubated for 45 minutes at room temperature. For competition of binding assays biotin-GA was pre-mixed with indicated compounds at various concentrations. Final concentration of DMSO in binding mixtures was adjusted to 1% v/v. Wells were washed 4 times with 200 μl of binding buffer. 100 μl of 100 ng/ml Eu-labeled streptavidin solution in binding buffer were added per well and incubated for 45 minutes at room temperature. Wells were washed twice with 200 μl of binding buffer and twice with 200 μl of PBS. 100 μl of DELFIA Enhancement Solution were added per well and incubated for 10 minutes at room temperature. Plates were read on a Wallac Victor plate reader (Wallac-PerkinElmer Life Sciences) using delayed fluorescence Eu protocol at default manufacturer's settings.
Coated wells with no competing agent added were used to determine total binding (T). Non-coated wells were used to determine background binding (B). Background binding was consistently lower than 20%. Inhibition of binding was calculated as I=(T−BC)/(T−B)*100%, where BC was a reading corresponding to a well with a competing compound C added.
Other controls included assays of Biotin-GA binding to the wells coated with 500 μg/well of BSA or mouse Immunoglobulin G, the secondary reagent (Eu-labeled streptavidin) alone binding to the wells coated with […].

[2] = tested on: T-47D; test: Caspase cascade activation and induction of apoptosis in solid tumor cells; type: cell-based, Human; details: 48 h incubation; for Caspase activity (Ratio): ratio of net RFU of test compound to control; for pEC50: Homo sapiens, T47D, read-out: Caspase potency EC50; for pEC50 / Caspase potency EC50 (nM): 0.016 to 10 μM
Protocol: Human breast cancer cell lines T-47D and DLD-1 were grown according to media component mixtures designated by American Type Culture Collection +10% FCS (Invitrogen Corporation), in a 5% CO2-95% humidity incubator at 37° C. T-47D and DLD-1 cells were maintained at a cell density between 50 and 80% confluency at a cell density of 0.1 to 0.6×10^6 cells/mL. Cells were harvested at 600×g and resuspended at 0.65×10^6 cells/mL into appropriate media +10% FCS. An aliquot of 22.5 μL of cells was added to a well of a 384-well microtiter plate containing 2.5 μL of a 10% DMSO in RPMI-1640 media solution containing 0.16 to 100 μM of test compound (0.016 to 10 μM final). An aliquot of 22.5 μL of cells was added to a well of a 384-well microtiter plate containing 2.5 μL of a 10% DMSO in RPMI-1640 media solution without test compound as the control sample. The samples were mixed by agitation and then incubated at 37° C. for 48 h in a 5% CO2-95% humidity incubator. After incubation, the samples were removed from the incubator and 25 μL of a solution containing 14 μM of N-(Ac-DEVD)-N′-ethoxycarbonyl-R110 (SEQ ID NO.: 41) fluorogenic substrate (Cytovia, Inc.; WO99/18856), 20% sucrose (Sigma), 20 mM DTT (Sigma), 200 mM NaCl (Sigma), 40 mM Na PIPES buffer pH 7.2 (Sigma), and 500 μg/mL lysolecithin (Calbiochem) was added. The samples were mixed by agitation and incubated at room temperature. Using a fluorescent plate reader (Model SPECTRAfluor Plus, Tecan), an initial reading (T=0) was made approximately 1-2 min after addition of the substrate solution, employing excitation at 485 nm and emission at 530 nm, to determine the background fluorescence of the control sample. After the 3 h incubation, the samples were read for fluorescence as above (T=3 h).
The Relative Fluorescence Unit values (RFU) were used to calculate the sample readings as follows: RFU(T=3h)−Control RFU(T=0)=Net RFU(T=3h)
The activity of caspase cascade activation was determined by the ratio of the net RFU value for test compound to that of control samples. The EC50 (nM) was determined by a sigmoidal dose-response calculation (Prism 3.0, GraphPad Software Inc.).

[3] = target: T1, soluble human transferrin receptor (shTR) (Homo sapiens, UniProt P02786); test: Biotin-GA binding to plates coated with soluble human transferrin receptor, Eu-streptavidin detection
T1 construct: soluble human transferrin receptor (shTR); purchased Merck Biosciences, Schwalbach, Germany
T1 sequence (P02786 101-760 limits assumed): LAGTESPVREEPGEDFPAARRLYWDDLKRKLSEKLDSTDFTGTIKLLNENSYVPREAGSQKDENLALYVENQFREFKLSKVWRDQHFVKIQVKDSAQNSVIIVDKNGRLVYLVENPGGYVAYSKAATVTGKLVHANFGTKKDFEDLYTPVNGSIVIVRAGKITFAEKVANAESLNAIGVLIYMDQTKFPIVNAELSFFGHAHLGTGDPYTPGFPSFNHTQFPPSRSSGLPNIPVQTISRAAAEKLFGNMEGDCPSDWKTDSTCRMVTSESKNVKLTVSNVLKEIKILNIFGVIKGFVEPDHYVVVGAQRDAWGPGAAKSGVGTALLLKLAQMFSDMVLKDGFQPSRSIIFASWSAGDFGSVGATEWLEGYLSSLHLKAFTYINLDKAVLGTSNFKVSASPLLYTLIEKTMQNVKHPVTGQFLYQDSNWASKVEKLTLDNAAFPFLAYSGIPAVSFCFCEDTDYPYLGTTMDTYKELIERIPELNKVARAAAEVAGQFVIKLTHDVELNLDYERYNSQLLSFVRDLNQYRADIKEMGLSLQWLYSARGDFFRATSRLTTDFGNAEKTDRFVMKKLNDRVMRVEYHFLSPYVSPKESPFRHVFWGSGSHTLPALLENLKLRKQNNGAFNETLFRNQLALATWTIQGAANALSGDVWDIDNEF
Protocol: FIG. 1A. […] 96-well plates were coated with soluble human transferrin receptor (shTR) (SEQ ID NO. 1) at 375 ng/well and blocked with Bovine Serum Albumin (BSA). Wells were incubated with increasing concentrations of biotin-GA in binding/washing buffer for 20 min at 30° C. Eu-streptavidin was used for the detection. Amounts of bound Eu-Streptavidin were quantified by measuring time-delayed fluorescence. Confirmed in three independent experiments.
FIG. 1C. […] Separate control wells were probed with biotinylated holo-transferrin (bio-Trn) to control for TR retention and possible denaturation over long incubation times. Independently confirmed in three experiments.
FIG. 1D. […] Binding of Biotin-GA and tritium-GA to Jurkat cells (hatched) or in-vitro TfR-binding (solid) in the presence of 1 μM GA, 50 μg/ml of apo-transferrin or 50 μg/ml of holo-transferrin is shown in this graph. […]
96-well plates were coated with soluble human transferrin receptor (shTR) (Merck Biosciences, Schwalbach, Germany) at 375 ng/well and blocked with Bovine Serum Albumin (BSA). […] Amounts of bound Eu-Streptavidin were quantified after incubation with Enhancement Solution (Perkin-Elmer, Wellesey, Mass.) by measuring time-delayed fluorescence on a Wallac Victor plate reader (Perkin-Elmer, Wellesey, Mass.) according to manufacturer's protocol. […] Kd and competition EC50 values were calculated using PRIZM software. […]

[4] = tested on: T47D cells; test: Transferrin receptor internalization, FITC anti-transferrin receptor immunofluorescence; type: cell-based, human; details: 2 μM GA for 10 or 30 min
Protocol: FIG. 2A. […] T47D cells were treated with DMSO or 2 μM GA for 10 min (panels A and C respectively) and DMSO or 2 μM GA for 30 min (panels B and D, respectively) and further treated with FITC conjugated anti-transferrin receptor for 30 mins at 37° C. The cells were then fixed with methanol at −20° C. for 5 min, washed with PBS and mounted with Vectashield mounting medium. Representative of three independently confirmed experiments.
For detecting internalization of fluorescent transferrin receptor, T47D cells were plated on glass cover slips in a 6-well plate at a density of 3×10^5 cells per well on the day before the experiment. Cells were pretreated with 2 μM GA for 10 min at 37° C. washed with PBS, and then labeled for 30 min with 1 μg/ml FITC-labeled mouse anti-human transferrin receptor (RDI, Flanders, N.J.) at 37° C. The cells were then fixed with methanol at −20° C. for 5 min, washed with PBS and mounted with Vectashield mounting medium (Hard set with DAPI, Vector Laboratories, Inc., Burlingame, Calif.).

[5] = tested on: Jurkat cells; test: Cell surface transferrin receptor expression by FACS; type: cell-based; details: 5 μM GA for 5 min
Protocol: FIG. 2B. […] Jurkat cells were treated with holo-transferrin (50 μg/ml) or GA (5 μM) alone for 5 min or pretreat for 5 min with holo-transferrin followed by 5 min GA (5 μM) treatment. Cells were then stained with FITC-conjugated anti-transferrin receptor antibody for 30 minutes at 4° C. After washing, cells were analyzed on a Becton Dickinson FACS Calibur. Data is shown as mean flourescence units (mfu). Confirmed in three independent experiments.
FACS Analysis: For cell surface staining of transferrin receptor, cells were washed with PBS+1% BSA and stained with FITC-conjugated anti-transferrin receptor antibody (RDI, Flanders, N.J.) for 30 minutes at 4° C. After washing, cells were analyzed on a FACS Calibur (BD Biosciences, San Jose, Calif.) using Cellquest software.

Transferrin Receptors, sequence (P02786 whole entry): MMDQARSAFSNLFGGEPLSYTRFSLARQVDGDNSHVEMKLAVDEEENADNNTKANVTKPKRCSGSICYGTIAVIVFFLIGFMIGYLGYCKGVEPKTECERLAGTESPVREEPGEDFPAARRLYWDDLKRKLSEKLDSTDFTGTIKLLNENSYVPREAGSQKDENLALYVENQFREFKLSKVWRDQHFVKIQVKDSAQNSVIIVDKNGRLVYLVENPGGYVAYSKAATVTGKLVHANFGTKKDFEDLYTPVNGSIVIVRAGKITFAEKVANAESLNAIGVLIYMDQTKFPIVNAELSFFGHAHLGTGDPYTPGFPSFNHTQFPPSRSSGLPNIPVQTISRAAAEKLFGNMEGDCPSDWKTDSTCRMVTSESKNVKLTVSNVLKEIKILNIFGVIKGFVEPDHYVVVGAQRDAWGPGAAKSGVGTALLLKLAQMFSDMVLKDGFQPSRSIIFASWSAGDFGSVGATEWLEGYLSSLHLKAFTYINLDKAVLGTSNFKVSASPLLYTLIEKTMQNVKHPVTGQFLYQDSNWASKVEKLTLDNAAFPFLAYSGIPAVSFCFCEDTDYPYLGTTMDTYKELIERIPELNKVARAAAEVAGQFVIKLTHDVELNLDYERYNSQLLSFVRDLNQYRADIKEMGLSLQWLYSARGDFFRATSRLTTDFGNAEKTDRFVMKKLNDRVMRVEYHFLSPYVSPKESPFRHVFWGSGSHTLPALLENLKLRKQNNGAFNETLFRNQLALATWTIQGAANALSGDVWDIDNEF

SMILES | inhibition at 20 µM [1] [%] | pEC50 [2] | Caspase potency EC50 (nM) [2] | Caspase activity (Ratio) [2] | Binding to transferrin receptor in vitro (in words) ([3]; shTR 375 ng/well, increasing concentrations of biotin-GA) | Displacement of receptor-bound GA (in words) ([3]; shTR-coated wells incubated with biotin-GA, washed, then incubated with GA) | Transferrin receptor internalization (in words) [4] | Transferrin receptor internalization by cell surface receptor expression (in words) [5]
C=CCC12OCC3CC(CC4C(=O)c5ccccc5OC341)C2=O (stereo not shown) [Example 19, 1-allyl-1,3,3a,4,5,6,6a,12a-octahydro-7,13-dioxo-1,5-methano-furo[3,4-d]xanthene] | 0 |  | Inactive | 1.0 |  |  |  | 
C=CCC12CC3COC(CC=C)(C1=O)C3(CC=C)C=C2C(=O)c1ccccc1 (stereo not shown) [Example 28, 1,3,7-Triallyl-9-benzoyl-4-oxa-tricyclo[4.3.1.0^3,7]dec-8-en-2-one] | 8 |  | Inactive | 1.3 |  |  |  | 
CC(C)=CCC12OC(C)(C)C3CC(C=C4C(=O)C=C(c5ccccc5)OC431)C2=O (stereo not shown) [Example 31, 1-(3-Methyl-2-butenyl)-3,3-dimethyl-1,3,3a,4,5,10a-hexahydro-7,11-dioxo-9-phenyl-1,5-methano-furo[3,4-i]chromene] | 47 | 5.41 |  | 11.4 |  |  |  | 
CC(C)=CCC[C@]1(C)C=Cc2c(O)c3c(c(CC=C(C)C)c2O1)O[C@]12C(=C[C@@H]4C[C@H]1C(C)(C)O[C@@]2(C/C=C(/C)C(=O)O)C4=O)C3=O [GA, Gambogic acid] |  |  |  |  | binds transferrin receptor in vitro | can be displaced by active GA derivatives | interferes with receptor internalization | interferes with transferrin receptor (SEQ ID NO. 1) internalization

Now from value to molecule, other results behind:

inhibition at 20 µM [1] [%] | pEC50 [2] | Caspase potency EC50 (nM) [2] | SMILES | Caspase activity (Ratio) [2] | Binding to transferrin receptor in vitro (in words) ([3]; shTR 375 ng/well, increasing concentrations of biotin-GA) | Displacement of receptor-bound GA (in words) ([3]; shTR-coated wells incubated with biotin-GA, washed, then incubated with GA) | Transferrin receptor internalization (in words) [4] | Transferrin receptor internalization by cell surface receptor expression (in words) [5]
52 | 5.08 |  | C=CCC12OCC3CC(C=C4C(=O)c5ccccc5OC431)C2=O (stereo not shown) [Example 17, 1-Allyl-1,3,3a,4,5,12a-hexahydro-7,13-dioxo-1,5-methano-furo[3,4-d]xanthene] | 9.8 |  |  |  | 
42 | 5.18 |  | C=CCC12OCC3CC4(Oc5ccccc5C(=O)C4=CC31)C2=O (stereo not shown) [Example 18, 1-Allyl-1,3,3a,4,4a,11a-hexahydro-10,12-dioxo-1,4a-methano-furo[3,4-b]xanthene] | 2.9 |  |  |  | 
51 | 5.40 |  | CC(C)=CCC12OC(C)(C)C3CC(C=C4C(=O)c5ccccc5OC431)C2=O (stereo not shown) [Example 22, 1-(3-Methyl-2-butenyl)-3,3-dimethyl-1,3,3a,4,5,12a-hexahydro-7,13-dioxo-1,5-methano-furo[3,4-d]xanthene] | 9.9 |  |  |  | 
59 | 5.43 |  | CC(C)=CCC12OC(C)(C)C3CC4(Oc5ccccc5C(=O)C4=CC31)C2=O (stereo not shown) [Example 23, 1-(3-Methyl-2-butenyl)-3,3-dimethyl-1,3,3a,4,4a,11a-hexahydro-10,12-dioxo-1,4a-methano-furo[3,4-b]xanthene] | 14.1 |  |  |  | 
11 |  | Inactive | C=CCC12C=C(C(=O)c3ccccc3)C3(CC=C)C(COC3(CC=C)C1=O)C2 (stereo not shown) [Example 27, 1,3,7-Triallyl-8-benzoyl-4-oxa-tricyclo[4.3.1.0^3,7]dec-8-en-2-one] | 1.5 |  |  |  | 
61 | 5.51 |  | CC(C)=CCC12OC(C)(C)C3CC4(OC(c5ccccc5)=CC(=O)C4=CC31)C2=O (stereo not shown) [Example 32, 1-(3-Methyl-2-butenyl)-3,3-dimethyl-1,3,3 a,4,4a,9a-hexahydro-8,10-dioxo-6-phenyl-1,4a-methano-furo[3,4-g]chromene] | 10.6 |  |  |  | 
